Source: patent US9434764B2, “Skin care compositions and methods comprising selective agonists of melanocortin 1 receptor” (University of Cincinnati, priority 2012, dated 2016)
Entries after “also recorded” stand apart in the source; their conditions may differ.

Columns and labels:
MC1R [1] = molecular target: T1, MC1R (Homo sapiens, UniProt Q01726); test: Stimulation of cAMP formation in cultured human melanocytes; assay type: cell-based; design: MC1R is expressed on the cell surface of melanocytes; endogenous in cells; host or cells: cultured human melanocytes; settings: for cAMP compared to 10 nM αMSH: cultured human melanocytes; for potency in stimulating cAMP formation compared to another peptide: in words
T1 sequence (Q01726 whole entry): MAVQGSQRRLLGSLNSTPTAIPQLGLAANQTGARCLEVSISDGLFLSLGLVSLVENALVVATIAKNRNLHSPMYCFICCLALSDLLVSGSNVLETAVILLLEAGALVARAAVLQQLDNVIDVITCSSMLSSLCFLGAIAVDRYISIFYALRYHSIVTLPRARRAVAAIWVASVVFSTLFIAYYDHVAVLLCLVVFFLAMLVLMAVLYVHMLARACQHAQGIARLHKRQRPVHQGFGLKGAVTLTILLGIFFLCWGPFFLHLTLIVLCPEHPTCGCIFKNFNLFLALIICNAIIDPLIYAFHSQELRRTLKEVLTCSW
Experimental: Peptides were tested on cultured human melanocytes for their capacity to activate MC1R, as measured by stimulating cAMP formation. After 45 minutes of treatment with different concentrations of peptides, cAMP levels were measured using a I^125-labeled radioimmunoassay kit.
(§1) Peptides were tested as described in Example 4 above on cultured human melanocytes for their capacity to activate MC1R, as measured by stimulating cAMP formation, and for their capacity for stimulating tyrosinase activity, the rate-limiting enzyme for melanin synthesis. The tested peptides were synthesized according to the formula: Ar(CH2)mX^1—X^2—CO—X^3—X^4—X^5-(Trp)n-NX^6R wherein X^1 and X^2 are absent, X^3 is His, X^5 is Arg, and X^6 is H. X^4 amino acids were in the D-stereoisomer form, unless otherwise noted.

hMC3R = molecular target: T2, hMC3R (Homo sapiens, UniProt P41968); test: cAMP stimulation in heterologous cells expressing human MC3R; assay type: cell-based; settings: for EC50: cAMP, heterologous cells; for binding of MC3R: in words
T2 construct: expressed in transfected cells
T2 sequence (P41968 whole entry): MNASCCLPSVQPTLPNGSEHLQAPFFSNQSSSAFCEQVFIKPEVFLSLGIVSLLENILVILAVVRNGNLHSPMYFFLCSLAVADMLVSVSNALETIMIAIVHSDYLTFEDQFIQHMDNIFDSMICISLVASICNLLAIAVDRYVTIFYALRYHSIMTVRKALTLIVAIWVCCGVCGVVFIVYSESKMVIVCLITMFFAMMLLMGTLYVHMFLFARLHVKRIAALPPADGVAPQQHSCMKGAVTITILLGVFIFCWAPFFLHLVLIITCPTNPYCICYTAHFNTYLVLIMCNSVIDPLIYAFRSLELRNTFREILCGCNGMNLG
Experimental: (§2) Receptor selectivity of peptide agonists for hMC1R was determined by stimulation of cAMP in heterologous cells expressing different human melanocortin receptors (MC1R, MC3R, MC4R, and MC5R).

[2] = tested on: UV-irradiated human melanocytes; test: Repair of UV-induced cyclobutane pyrimidine dimers (CPD) in human melanocytes; assay type: cell-based; settings: for CPD removal at 1 nM compared to 10 nM α-MSH: 1 nM peptide, 48 hours post UV
Experimental: To investigate the effects of peptides on the repair of UV-induced DNA damage, levels of cyclobutane pyrimidine dimers (CPD), the major form of DNA photoproducts, were measured in UV-irradiated human melanocytes with or without peptide treatment. Melanocytes were pretreated with the peptides for 4 days prior to, and for 48 hours post UV exposure, harvested, immunostained by a specific antibody for CPD, and analyzed by flow cytometry.

hMC4R = molecular target: T3, hMC4R (Homo sapiens, UniProt P32245); test: cAMP stimulation in heterologous cells expressing human MC4R; assay type: cell-based; settings: for EC50: cAMP, heterologous cells
T3 construct: expressed in transfected cells
T3 sequence (P32245 whole entry): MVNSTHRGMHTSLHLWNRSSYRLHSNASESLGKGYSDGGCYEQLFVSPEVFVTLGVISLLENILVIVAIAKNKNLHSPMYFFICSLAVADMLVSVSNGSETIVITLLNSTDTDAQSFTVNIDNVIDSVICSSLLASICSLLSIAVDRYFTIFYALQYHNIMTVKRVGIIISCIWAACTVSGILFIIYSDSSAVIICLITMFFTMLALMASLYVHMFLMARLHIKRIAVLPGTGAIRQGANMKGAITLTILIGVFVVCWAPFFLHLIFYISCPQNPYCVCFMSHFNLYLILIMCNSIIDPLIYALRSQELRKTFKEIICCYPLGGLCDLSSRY
Experimental: as §2

MC1R [3] = molecular target: T1, MC1R; test: cAMP stimulation in heterologous cells expressing human MC1R; assay type: cell-based; design: expressed in transfected cells; settings: for EC50: cAMP, heterologous cells; for potency in activation of MC1R compared to MT-II: in words
Experimental: as §2

hMC5R = molecular target: T4, hMC5R (Homo sapiens, UniProt P33032); test: cAMP stimulation in heterologous cells expressing human MC5R; assay type: cell-based; settings: for EC50: cAMP, heterologous cells; for binding of MC5R: in words
T4 construct: expressed in transfected cells
T4 sequence (P33032 whole entry): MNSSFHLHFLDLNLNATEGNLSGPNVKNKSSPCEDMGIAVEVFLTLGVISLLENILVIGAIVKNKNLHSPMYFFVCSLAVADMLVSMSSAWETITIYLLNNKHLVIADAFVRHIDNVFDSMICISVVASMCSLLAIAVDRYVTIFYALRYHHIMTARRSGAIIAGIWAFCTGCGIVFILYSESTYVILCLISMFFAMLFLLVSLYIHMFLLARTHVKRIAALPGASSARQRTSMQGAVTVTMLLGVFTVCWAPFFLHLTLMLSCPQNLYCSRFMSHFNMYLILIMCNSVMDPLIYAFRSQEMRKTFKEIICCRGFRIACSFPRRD
Experimental: as §2

tyrosinase activity = test: Stimulation of tyrosinase activity in cultured human melanocytes; assay type: cell-based; settings: for effect on tyrosinase activity compared to another peptide / concentration at which significant stimulation of tyrosinase activity begins: 6-day treatment; for effect on tyrosinase activity compared to another peptide: in words; for TA (tyrosinase activity) compared to 10 nM αMSH: cultured human melanocytes
Experimental: Peptides were tested on cultured human melanocytes for their capacity for stimulating tyrosinase activity, the rate-limiting enzyme for melanin synthesis. Melanocytes were treated every other day, for a total of 6 days, with increasing concentrations of peptides. Medium containing H^3-tyrosine, the substrate for tyrosinase, was added to melanocytes 24 hours before the end of the 6-day treatment. Tyrosinase activity was measured by determining the amount of ^3H2O generated as […] is catalyzed by tyrosinase for melanin synthesis.
as §1

[4] = tested on: UV-irradiated human melanocytes; test: Repair of UV-induced 8-oxodG in human melanocytes; assay type: cell-based
Experimental: To investigate the effects of peptides on repair of UV-induced DNA damage, levels of 8-oxodG, a major form of oxidative DNA damage, were measured in UV-irradiated human melanocytes with or without peptide treatment. […] Fluorescence intensity, which correlates with the amount of DNA damage, was quantified using ImagJ software.

mouse MCRs = settings: in words; cited from earlier work
human melanocytes = test: Potency in human melanocytes; assay type: cell-based; settings: in words
Text: Satyanarayanajois S. D., et al., Conformations of end-capped melanocortin agonists RCO-X-Z-Arg-Trp-NH2 by 2D-NMR, CD and computations, Peptides Breaking Away: Proceedings of the Twenty-First American Peptide Association 384 (2009). […] Ruwe A. R. et al., Semi-rigid tripeptide agonists of melanocortin receptors, Bioorg. Med. Chem. Lett. 19(17): 5176-81 (2009). […] Thus, while not desiring to be bound by theory, it is believed that the conformational restraints favorable for longer peptides may be unfavorable for shorter MC1R agonists, including the Formula I and Formula II peptides disclosed herein.

[5] = Peptide storage stability by HPLC; assay type: physicochemical; settings: lyophilized, open air, room temperature, 4 months
Experimental: LK-513 (Ph(CH2)3CO-His-(D-4-Bip)-Arg-NHMe) was tested for stability and degradation over a storage period. The peptide was stored in a lyophilized form in open air at room temperature for 4 months. After 4 months, HPLC was performed on a test sample of the peptide in order to measure degradation, using standard methods (FIG. 1). […] Without being bound by theory, it is believed that the enhanced stability is a product of the absence of amide bonds between natural L-L-amino acids in the tripeptides and the existence of only one amide bond between natural amino acids in the tetrapeptides (Arg-Trp). Amide bonds between non-natural D- and natural L-amino acids are less prone to chemical and enzymatic hydrolysis, as evidenced by the FIG. 1. Further, the bulk and hydrophobicity of the X4 amino acid (D-Phe or a bulky hydrophobic analog thereof, such as D-4-Bip in the case of LK-513) shield the polar amid bonds of the peptide from chemical and enzymatic degradation.

Molecule: 3,4-O(CH2)2C6H4CH2CO-His-(D-4-FPhe)-Arg-Trp-NH2 [LK 210P]
- cAMP compared to 10 nM αMSH (MC1R [1]): ≧

Molecule: N=C(N)NCCC[C@H](NC(=O)[C@@H](Cc1cccc2ccccc12)NC(=O)[C@H](Cc1c[nH]cn1)NC(=O)CCCc1ccccc1)C(=O)N[C@@H](Cc1c[nH]c2ccccc12)C(N)=O [LK-467, Ph(CH2)3CO-His-(D-1-Nal)-Arg-Trp-NH2]
- EC50 (hMC3R): 32.4 nM
- CPD removal at 1 nM compared to 10 nM α-MSH [2]: same effect at 1 nM on CPD removal as 10 nM α-MSH
- reduction of CPD levels compared to LK-184 ([2]; 48 hours after UV exposure): as effective as LK-184
- EC50 (hMC4R): 18.1 nM
- potency at hMC4R compared to LK-184 (hMC4R; in words): about ten times less potent
- EC50 (MC1R [3]): 0.34 nM
- EC50 (hMC5R): 122 nM
- potency in stimulating cAMP formation compared to another peptide (MC1R [1]; human melanocytes): more potent than LK-184
- effect on tyrosinase activity compared to another peptide (tyrosinase activity; human melanocytes): comparable effects in tyrosinase activity
- potency compared to α-MSH in activating MC1R and stimulating melanogenesis (tyrosinase activity; human melanocytes, tyrosinase activity): at least 100 times
- reduction of 8-oxodG levels compared to LK-184 ([4]; 24 hours after UV exposure): as effective as LK-184

Molecule: Ph(CH2)3CO-His-(D-1-Nal)-Arg-NHMe [LK 512P]
- TA (tyrosinase activity) compared to 10 nM αMSH (tyrosinase activity): NR (NR = No Response/inactive at 10 nM)

Molecule: trans-4-HOC6H4CH═CHCO-His-D-Phe-Arg-NH2
- MC1R selectivity and potency at mouse MCRs compared to LK-394 (mouse MCRs): moderately increased MC1R selectivity and potency
- potency in human melanocytes (human melanocytes): less potent

Molecule: CC(C)(C)c1ccc(C[C@@H](NC(=O)[C@H](Cc2c[nH]cn2)NC(=O)CCCc2ccccc2)C(=O)N[C@@H](CCCNC(=N)N)C(N)=O)cc1 [LK-514, Ph(CH2)3CO-His-(D-4-tBuPhe)-Arg-NH2]
- EC50 (hMC3R): > 10000 nM
- binding of MC3R (hMC3R): do not bind
- EC50 (hMC4R): > 10000 nM
- binding of MC4R (hMC4R; in words): do not bind
- EC50 (MC1R [3]): 3.65 nM
- potency in activation of MC1R compared to MT-II (MC1R [3]): about as potent as MT-II
- EC50 (hMC5R): > 10000 nM
- binding of MC5R (hMC5R): do not bind
- potency in stimulating cAMP formation compared to another peptide (MC1R [1]; human melanocytes): about ten times less potent than α-MSH; also recorded: more potent than LK-511 or 513; also recorded: more potent than LK-511 or LK-513
- TA (tyrosinase activity) compared to 10 nM αMSH (tyrosinase activity): <
- concentration at which significant stimulation of tyrosinase activity begins (tyrosinase activity; human melanocytes): 1 nM
- effect on tyrosinase activity compared to another peptide (tyrosinase activity; human melanocytes): the most effective
- reduction of 8-oxodG levels at 100 nM compared to 1 nM α-MSH ([4]; 100 nM peptide, 24 hours post UV): greater effect than 1 nM α-MSH

Molecule: Ph(CH2)3CO-His-(D-2-Nal)-Arg-NH2 [LK 515P]
- TA (tyrosinase activity) compared to 10 nM αMSH (tyrosinase activity): <<

Molecule: Ph(CH2)3CO-His-(D-1-Nal)-Arg-NH2 [LK 510P]
- TA (tyrosinase activity) compared to 10 nM αMSH (tyrosinase activity): NR (NR = No Response/inactive at 10 nM)

Molecule: 4-FC6H4CH2CO-His-(D-4-FPhe)-Arg-Trp-NH2 [LK 205P]
- cAMP compared to 10 nM αMSH (MC1R [1]): ≦
- TA (tyrosinase activity) compared to 10 nM αMSH (tyrosinase activity): ≧

Molecule: Ph(CH2)3CO-His-(D-Phe)-Arg-Trp-NHEt [LK-487]
- potency in stimulating cAMP formation compared to another peptide (MC1R [1]; human melanocytes): equipotent to LK-467
- effect on tyrosinase activity compared to another peptide (tyrosinase activity; human melanocytes): equipotent to LK-467

Molecule: Ph(CH2)3CO-His-(D-2-Nal)-Arg-NHMe [LK 517P]
- TA (tyrosinase activity) compared to 10 nM αMSH (tyrosinase activity): <<<

Molecule: CNC(=O)[C@H](CCCNC(=N)N)NC(=O)[C@@H](Cc1ccc(-c2ccccc2)cc1)NC(=O)[C@H](Cc1c[nH]cn1)NC(=O)CCCc1ccccc1 [LK-513, Ph(CH2)3CO-His-(D-4-Bip)-Arg-NHMe]
- EC50 (hMC3R): > 10000 nM
- binding of MC3R (hMC3R): do not bind
- stability and degradation by HPLC [5]: highly stable and resistant to degradation, showing only a single HPLC peak; also recorded: highly stable and substantially free of degradation
- EC50 (hMC4R): > 10000 nM
- binding of MC4R (hMC4R; in words): do not bind
- EC50 (MC1R [3]): 3.27 nM
- potency in activation of MC1R compared to MT-II (MC1R [3]): about as potent as MT-II
- EC50 (hMC5R): > 10000 nM
- binding of MC5R (hMC5R): do not bind
- potency in stimulating cAMP formation compared to another peptide (MC1R [1]; human melanocytes): about ten times less potent than α-MSH
- TA (tyrosinase activity) compared to 10 nM αMSH (tyrosinase activity): <
- concentration at which significant stimulation of tyrosinase activity begins (tyrosinase activity; human melanocytes): 1 nM

Molecule: Ph(CH2)3CO-His-(D-2-Nal)-Arg-Trp-NH2 [LK 468P]
- cAMP compared to 10 nM αMSH (MC1R [1]): ≦

Molecule: Ph(CH2)3CO-His-(D-4-tBuPhe)-Arg-NHMe [LK 516P]
- TA (tyrosinase activity) compared to 10 nM αMSH (tyrosinase activity): <<

Molecule: N=C(N)NCCC[C@H](NC(=O)[C@@H](Cc1ccccc1)NC(=O)[C@H](Cc1c[nH]cn1)NC(=O)CCCc1ccccc1)C(=O)N[C@@H](Cc1c[nH]c2ccccc12)C(N)=O [LK-184, Ph(CH2)3CO-His-(D-Phe)-Arg-Trp-NH2]
- EC50 (hMC3R): 22.7 nM
- CPD removal at 1 nM compared to 10 nM α-MSH [2]: same effect at 1 nM on CPD removal as 10 nM α-MSH
- EC50 (MC1R [3]): 0.19 nM
- EC50 (hMC5R): 262 nM
- concentration giving maximal cAMP (MC1R [1]; human melanocytes, 45 minutes of treatment): 10 nM
- effect on tyrosinase activity compared to another peptide (tyrosinase activity; human melanocytes): comparable effects in tyrosinase activity

Molecule: N=C(N)NCCC[C@H](NC(=O)[C@@H](Cc1ccc(-c2ccccc2)cc1)NC(=O)[C@H](Cc1c[nH]cn1)NC(=O)CCCc1ccccc1)C(N)=O [LK-511, Ph(CH2)3CO-His-(D-4-Bip)-Arg-NH2]
- EC50 (hMC3R): > 10000 nM
- binding of MC3R (hMC3R): do not bind
- EC50 (hMC4R): > 10000 nM
- binding of MC4R (hMC4R; in words): do not bind
- EC50 (MC1R [3]): 1.46 nM
- potency in activation of MC1R compared to MT-II (MC1R [3]): about as potent as MT-II
- EC50 (hMC5R): > 10000 nM
- binding of MC5R (hMC5R): do not bind
- potency in stimulating cAMP formation compared to another peptide (MC1R [1]; human melanocytes): about ten times less potent than α-MSH
- TA (tyrosinase activity) compared to 10 nM αMSH (tyrosinase activity): <
- concentration at which significant stimulation of tyrosinase activity begins (tyrosinase activity; human melanocytes): 1 nM
